Target: Multidrug resistance protein 1a (Rattus norvegicus) (UniProt Q6PSM0)
Assay: TP_TRANSPORTER: Northern blot in vivo Fischer male rat
Format: functional, organism-based

Multidrug resistance protein 1a (Rattus norvegicus), sequence (Q6PSM0 as listed by the source): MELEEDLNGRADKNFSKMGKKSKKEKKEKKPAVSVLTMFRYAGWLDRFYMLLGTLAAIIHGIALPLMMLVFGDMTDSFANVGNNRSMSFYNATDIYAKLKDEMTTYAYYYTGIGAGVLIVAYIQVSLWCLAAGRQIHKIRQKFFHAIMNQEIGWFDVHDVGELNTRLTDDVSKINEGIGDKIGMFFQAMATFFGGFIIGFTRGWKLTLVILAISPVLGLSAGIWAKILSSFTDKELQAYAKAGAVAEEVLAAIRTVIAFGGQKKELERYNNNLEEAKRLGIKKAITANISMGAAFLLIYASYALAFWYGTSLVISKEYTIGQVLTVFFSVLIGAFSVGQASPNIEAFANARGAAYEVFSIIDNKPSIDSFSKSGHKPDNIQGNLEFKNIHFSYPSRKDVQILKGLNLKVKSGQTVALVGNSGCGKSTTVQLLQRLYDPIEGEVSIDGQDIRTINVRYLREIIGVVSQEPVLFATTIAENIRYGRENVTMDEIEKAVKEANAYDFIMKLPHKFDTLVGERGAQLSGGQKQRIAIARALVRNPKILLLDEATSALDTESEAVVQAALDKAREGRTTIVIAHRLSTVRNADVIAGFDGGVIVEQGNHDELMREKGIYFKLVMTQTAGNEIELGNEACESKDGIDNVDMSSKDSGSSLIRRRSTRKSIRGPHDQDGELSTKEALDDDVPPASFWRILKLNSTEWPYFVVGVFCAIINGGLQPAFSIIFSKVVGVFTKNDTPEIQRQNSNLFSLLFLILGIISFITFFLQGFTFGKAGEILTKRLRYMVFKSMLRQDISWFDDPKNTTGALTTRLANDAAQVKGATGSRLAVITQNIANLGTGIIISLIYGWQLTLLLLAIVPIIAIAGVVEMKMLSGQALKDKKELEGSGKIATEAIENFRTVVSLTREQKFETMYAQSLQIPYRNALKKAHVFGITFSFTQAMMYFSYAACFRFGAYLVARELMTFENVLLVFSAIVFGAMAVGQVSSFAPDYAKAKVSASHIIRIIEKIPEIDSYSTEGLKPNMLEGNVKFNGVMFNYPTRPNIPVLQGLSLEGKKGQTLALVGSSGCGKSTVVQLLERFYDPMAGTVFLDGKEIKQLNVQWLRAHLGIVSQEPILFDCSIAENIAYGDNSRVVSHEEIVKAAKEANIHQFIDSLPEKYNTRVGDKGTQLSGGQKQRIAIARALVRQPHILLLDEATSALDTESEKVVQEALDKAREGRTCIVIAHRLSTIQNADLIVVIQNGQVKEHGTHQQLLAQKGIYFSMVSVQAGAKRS

Structure (SMILES) | Activity
C/C=C/c1ccc2c(c1)OCO2 | inducer [+]
CC(=O)N(O)c1ccc2c(c1)Cc1ccccc1-2 | inducer [+]
Clc1cc2c(cc1Cl)Oc1cc(Cl)c(Cl)cc1O2 | inducer [+]
c1ccc2c(c1)Nc1ccccc1S2 | inducer [+]
COc1cc2c(c3oc(=O)c4c(c13)CCC4=O)[C@@H]1C=CO[C@@H]1O2 | inducer [+]
